Experimental data from patent US11472791B2 (Incyte Corporation, priority 2019, dated 2022).

Molecular target: CDK2/Cyclin E1 (Homo sapiens (Human), UniProt P24941)
Assay: CDK2/Cyclin E1 HTRF enzyme activity assay
Assay type: biochemical
Details: 1 mM ATP
Description: Assays are conducted in white 384-well polystyrene plates in a final reaction volume of 8 μL. […] HTRF signals are read after 1 hour at room temperature on a PHERAstar FS plate reader (BMG Labtech). Data is analyzed with IDBS XLFit and GraphPad Prism 5.0 software using a three or four parameter dose response curve to determine IC50 for each compound.

IC50, < 50 nM:
[2H]C([2H])([2H])NCc1ccc(-n2cc(-c3nc(NC4CCN(S(=O)(=O)CC)CC4)ncc3C#N)cn2)c(Cl)c1 [Example 139, 4-(1-(2-Chloro-4-(((methyl-d3)amino)methyl)phenyl)-1H-pyrazol-4-yl)-2((1-(ethylsulfonyl)piperidin-4-yl)amino)pyrimidine-5-carbonitrile]
[2H]C([2H])([2H])NCc1ccc(-n2cc(-c3nc(NC4CCN(S(=O)(=O)CC)CC4)ncc3C(F)(F)F)cn2)c(C)c1 [Example 129, N-(1-(Ethylsulfonyl)piperidin-4-yl)-4-(1-(2-methyl-4-(((methyl-d3)amino)methyl)phenyl)-1H-pyrazol-4-yl)-5-(trifluoromethyl)pyrimidin-2-amine]
[2H]C([2H])([2H])NCc1ccc(-n2cc(-c3nc(N[C@H]4CCN(S(=O)(=O)c5ccn(C)n5)C[C@H]4C)ncc3C#N)cn2)c(Cl)c1 [Example 147, 4-(1-(2-Chloro-4-(((methyl-d3)amino)methyl)phenyl)-1H-pyrazol-4-yl)-2-(((3R,4S)-3-methyl-1-((1-methyl-1H-pyrazol-3-yl)sulfonyl)piperidin-4-yl)amino)pyrimidine-5-carbonitrile]
[2H]C([2H])([2H])NCc1ccc(-n2cc(-c3nc(NC4CCN(S(=O)(=O)C5CC5)CC4)ncc3C(F)(F)F)cn2)c(C)c1 [Example 130, N-(1-(Cyclopropylsulfonyl)piperidin-4-yl)-4-(1-(2-methyl-4-(((methyl-d3)amino)methyl)phenyl)-1H-pyrazol-4-yl)-5-(trifluoromethyl)pyrimidin-2-amine]
Cc1cc(CN2CCN(C)CC2)ccc1-n1cc(-c2nc(NC3CCN(S(=O)(=O)c4ccn(C)n4)CC3)ncc2Cl)cn1 [Example 110, 5-Chloro-N-(1-((1-methyl-1H-pyrazol-3-yl)sulfonyl)piperidin-4-yl)-4-(1-(2-methyl-4-((4-methylpiperazin-1-yl)methyl)phenyl)-1H-pyrazol-4-yl)pyrimidin-2-amine]
Cc1nc(CNC(C)C)ccc1-n1cc(-c2nc(NC3CCN(S(=O)(=O)c4cn(C)cn4)CC3)ncc2C#N)cn1 [Example 151, 4-(1-(6-((Isopropylamino)methyl)-2-methylpyridin-3-yl)-1H-pyrazol-4-yl)-2-((1-((1-methyl-1H-imidazol-4-yl)sulfonyl)piperidin-4-yl)amino)pyrimidine-5-carbonitrile]
Cc1cc(CN2CCN(C)CC2)ccc1-n1cc(-c2nc(N[C@H]3CCN(S(=O)(=O)c4ccn(C)n4)C[C@H]3F)ncc2C(F)(F)F)cn1 [Example 103, N-((3R,4S)-3-Fluoro-1-((1-methyl-1H-pyrazol-3-yl)sulfonyl)piperidin-4-yl)-4-(1-(2-methyl-4-((4-methylpiperazin-1-yl)methyl)phenyl)-1H-pyrazol-4-yl)-5-(trifluoromethyl)pyrimidin-2-amine]
CCN1CCN(Cc2ccc(-n3cc(-c4nc(NC5CCN(S(C)(=O)=O)CC5)ncc4C#N)cn3)c(Cl)c2)CC1 [Example 238, 4-(1-(2-Chloro-4-((4-ethylpiperazin-1-yl)methyl)phenyl)-1H-pyrazol-4-yl)-2-((1-(methylsulfonyl)piperidin-4-yl)amino)pyrimidine-5-carbonitrile]
C[C@@H]1CN(S(=O)(=O)c2ccccn2)CC[C@@H]1Nc1ncc(C(F)(F)F)c(-c2cnn(CC(C)(C)O)c2)n1 [Example 62, 2-Methyl-1-(4-(2-(((3R,4S)-3-methyl-1-(pyridin-2-ylsulfonyl)piperidin-4-yl)amino)-5-(trifluoromethyl)pyrimidin-4-yl)-1H-pyrazol-1-yl)propan-2-ol]
CS(=O)(=O)N1CCC(Nc2ncc(C(F)(F)F)c(-c3cnn(-c4cc(N)ncc4C(F)(F)F)c3)n2)CC1 [Example 37, 4-(1-(2-Amino-5-(trifluoromethyl)pyridin-4-yl)-1H-pyrazol-4-yl)-N-(1-(methylsulfonyl)piperidin-4-yl)-5-(trifluoromethyl)pyrimidin-2-amine]
CNCc1ccc(-n2cc(-c3nc(NC4CCN(S(=O)(=O)C5CC5)CC4)ncc3C#N)cn2)c(Cl)c1 [Example 114, 4-(1-(2-Chloro-4-((methylamino)methyl)phenyl)-1H-pyrazol-4-yl)-2-((1-(cyclopropylsulfonyl)piperidin-4-yl)amino)pyrimidine-5-carbonitrile]
Cn1cnc(S(=O)(=O)N2CCC(Nc3ncc(C(F)(F)F)c(-c4cnn(C[C@H]5CCOC5)c4)n3)CC2)c1 [Example 33, (R)—N-(1-((1-Methyl-1H-imidazol-4-yl)sulfonyl)piperidin-4-yl)-4-(1-((tetrahydrofuran-3-yl)methyl)-1H-pyrazol-4-yl)-5-(trifluoromethyl)pyrimidin-2-amine]
CN(C)CCS(=O)(=O)N1CCC(Nc2ncc(C(F)(F)F)c(-c3cnn(CC(C)(C)O)c3)n2)CC1 [Example 83, 1-(4-(2-((1-((2-(Dimethylamino)ethyl)sulfonyl)piperidin-4-yl)amino)-5-(trifluoromethyl)pyrimidin-4-yl)-1H-pyrazol-1-yl)-2-methylpropan-2-ol]
O=C(Nc1ccc(S(=O)(=O)N2CCC(Nc3ncc(C(F)(F)F)c(-c4cnn(C5CCOCC5)c4)n3)CC2)cc1)N1CCOCC1 [Example 8, N-(4-((4-((4-(1-(Tetrahydro-2H-pyran-4-yl)-1H-pyrazol-4-yl)-5-(trifluoromethyl)pyrimidin-2-yl)amino)piperidin-1-yl)sulfonyl)phenyl)morpholine-4-carboxamide]
CCN(CC)C1CCC(S(=O)(=O)N2CCC(Nc3ncc(C(F)(F)F)c(-c4cnn(CC(C)(C)O)c4)n3)CC2)CC1 (single isomer, unassigned) [89 (peak 1), 1-(4-(2-((1-((4-(Diethylamino)cyclohexyl)sulfonyl)piperidin-4-yl)amino)-5-(trifluoromethyl)pyrimidin-4-yl)-1H-pyrazol-1-yl)-2-methylpropan-2-ol]
CS(=O)(=O)N1CCC(Nc2ncc(C#N)c(-c3cnn(-c4ccc(CN[C@H]5CCC[C@@H]5O)cc4Cl)c3)n2)CC1 [Example 187, 4-(1-(2-Chloro-4-((((1S,2S)-2-hydroxycyclopentyl)amino)methyl)phenyl)-1H-pyrazol-4-yl)-2-((1-(methylsulfonyl)piperidin-4-yl)amino)pyrimidine-5-carbonitrile]
CC(=O)N1CCN(Cc2ccc(-n3cc(-c4nc(NC5CCN(S(=O)(=O)c6cn(C)cn6)CC5)ncc4C(F)(F)F)cn3)c(C)c2)CC1 [Example 105, 1-(4-(3-Methyl-4-(4-(2-((1-((1-methyl-1H-imidazol-4-yl)sulfonyl)piperidin-4-yl)amino)-5-(trifluoromethyl)pyrimidin-4-yl)-1H-pyrazol-1-yl)benzyl)piperazin-1-yl)ethan-1-one]
CN1CCC(n2cc(-c3nc(NC4CCN(S(C)(=O)=O)CC4)ncc3F)c(C(F)(F)F)n2)CC1 [Example 17, 5-Fluoro-4-(1-(1-methylpiperidin-4-yl)-3-(trifluoromethyl)-1H-pyrazol-4-yl)-N-(1-(methylsulfonyl)piperidin-4-yl)pyrimidin-2-amine]
CCN1CCN(Cc2ccc(-n3cc(-c4nc(NC5CCN(S(C)(=O)=O)CC5)ncc4C(F)(F)F)cn3)c(C)c2)CC1 [Example 232, 4-(1-(4-((4-Ethylpiperazin-1-yl)methyl)-2-methylphenyl)-1H-pyrazol-4-yl)-N-(1-(methylsulfonyl)piperidin-4-yl)-5-(trifluoromethyl)pyrimidin-2-amine]
CC(=O)N1CC[C@@H](NCc2ccc(-n3cc(-c4nc(NC5CCN(S(C)(=O)=O)CC5)ncc4C#N)cn3)c(Cl)c2)C1 [Example 170, (R)-4-(1-(4-(((1-Acetylpyrrolidin-3-yl)amino)methyl)-2-chlorophenyl)-1H-pyrazol-4-yl)-2-((1-(methylsulfonyl)piperidin-4-yl)amino)pyrimidine-5-carbonitrile]
Cc1cc(CN2CCN(C)CC2)ccc1-n1cc(-c2nc(NC3CCN(S(=O)(=O)c4cn(C)cn4)CC3)ncc2Cl)cn1 [Example 109, 5-Chloro-N-(1-((1-methyl-1H-imidazol-4-yl)sulfonyl)piperidin-4-yl)-4-(1-(2-methyl-4-((4-methylpiperazin-1-yl)methyl)phenyl)-1H-pyrazol-4-yl)pyrimidin-2-amine]
CC(C)(O)Cn1cc(-c2nc(NC3CCN(S(=O)(=O)CCCCO)CC3)ncc2C(F)(F)F)cn1 [Example 93, 4-((4-((4-(1-(2-Hydroxy-2-methylpropyl)-1H-pyrazol-4-yl)-5-(trifluoromethyl)pyrimidin-2-yl)amino)piperidin-1-yl)sulfonyl)butan-1-ol]
CNCc1ccc(-n2cc(-c3nc(N[C@H]4CCN(S(=O)(=O)C5CC5)C[C@H]4F)ncc3C(F)(F)F)cn2)c(C)c1 [Example 123, N-((3R,4S)-1-(Cyclopropylsulfonyl)-3-fluoropiperidin-4-yl)-4-(1-(2-methyl-4-((methylamino)methyl)phenyl)-1H-pyrazol-4-yl)-5-(trifluoromethyl)pyrimidin-2-amine]
Cn1cnc(S(=O)(=O)N2CCC(Nc3ncc(C(F)(F)F)c(-c4cnn([C@H]5CC[C@H](O)CC5)c4)n3)CC2)c1 [Example 26, trans-4-(4-(2-((1-((1-Methyl-1H-imidazol-4-yl)sulfonyl)piperidin-4-yl)amino)-5-(trifluoromethyl)pyrimidin-4-yl)-1H-pyrazol-1-yl)cyclohexan-1-ol]
CCS(=O)(=O)N1CCC(Nc2ncc(C#N)c(-c3cnn(-c4ccc(CNC)cc4Cl)c3)n2)CC1 [Example 112, 4-(1-(2-Chloro-4-((methylamino)methyl)phenyl)-1H-pyrazol-4-yl)-2-((1-(ethylsulfonyl)piperidin-4-yl)amino)pyrimidine-5-carbonitrile]
